Reference: ChEMBL document CHEMBL5260802, “Discovery of Novel Allosteric HCV NS5B Inhibitors. 2. Lactam-Containing Thiophene Carboxylates” (ACS Med Chem Lett, 2017)

How the values were obtained:
[1] = Cytotoxicity against human Huh-7 cells transfected with HCV subgenomic replicon for NS5B polymerase assessed as reduction in cell viability; assay type: toxicity, cell-based
Hepatitis C virus [2] = assay: Antiviral activity against Hepatitis C virus subtype 1b infected in Huh-7 cells transfected with HCV subgenomic replicon for NS5B polymerase assessed as inhibition of viral replication measured upto 96 hrs by luciferase reporter gene assay; assay type: functional, organism-based, Hepacivirus hominis; conditions: for IC50: Huh-7, 96 h; for IC90: Huh-7, time <= 96 hrs
Hepatitis C virus [3] = assay: Antiviral activity against Hepatitis C virus subtype 1b infected in Huh-7 cells transfected with HCV subgenomic replicon for NS5B polymerase assessed as inhibition of viral replication measured upto 96 hrs in presence of 40% of human serum by luciferase reporter gene assay; assay type: functional, organism-based, Hepacivirus hominis; conditions: Huh-7, 96 h
[4] = Protein binding in rat plasma at 1 uM incubated for 6 hrs by LC-MS/MS based rapid equilibrium dialysis method; assay type: ADME, cell-free; conditions: read-out: PPB (converted)
[5] = Unbound AUC (0 to infinity) in Sprague-Dawley rat at 1 mg/kg,iv and measured after 72 hrs by LC/MS/MS analysis; assay type: ADME, organism-based; conditions: in vivo
[6] = Unbound AUC (0 to infinity) in Sprague-Dawley rat at 3 mg/kg,po and measured after 72 hrs by LC/MS/MS analysis; assay type: ADME, organism-based; conditions: in vivo
[7] = Oral bioavailability in Sprague-Dawley rat at 3 mg/kg and measured after 72 hrs by LC/MS/MS analysis; assay type: ADME, organism-based; conditions: in vivo
[8] = Cmax in Sprague-Dawley rat at 3 mg/kg,po and measured after 72 hrs by LC/MS/MS analysis; assay type: ADME, organism-based; design: time 72 hrs, dose 3 mg/kg, route po; conditions: in vivo
[9] = Unbound clearance in Sprague-Dawley rat at 1 mg/kg,iv and measured after 72 hrs by LC/MS/MS analysis; assay type: ADME, organism-based; conditions: in vivo
[10] = Volume of distribution at steady state in Sprague-Dawley rat at 1 mg/kg,iv and measured after 72 hrs by LC/MS/MS analysis; assay type: ADME, organism-based; conditions: in vivo, read-out: Vdss
[11] = AUC (0 to infinity) in Sprague-Dawley rat at 1 mg/kg,iv and measured after 72 hrs by LC/MS/MS analysis; assay type: ADME, organism-based; design: time 72 hrs, dose 1 mg/kg, route iv; conditions: in vivo; for AUC(0-inf): Sprague-Dawley
[12] = AUC (0 to infinity) in Sprague-Dawley rat at 3 mg/kg,po and measured after 72 hrs by LC/MS/MS analysis; assay type: ADME, organism-based; design: time 72 hrs, dose 3 mg/kg, route po; conditions: in vivo
[13] = Half life in Sprague-Dawley rat at 1 mg/kg,iv and measured after 72 hrs by LC/MS/MS analysis; assay type: ADME, organism-based; conditions: in vivo
[14] = Half life in Sprague-Dawley rat at 3 mg/kg,po and measured after 72 hrs by LC/MS/MS analysis; assay type: ADME, organism-based; conditions: in vivo
[15] = Clearance in Sprague-Dawley rat at 1 mg/kg,iv and measured after 72 hrs by LC/MS/MS analysis; assay type: ADME, organism-based; conditions: in vivo
[16] = target: T1, Nuclear receptor subfamily 1 group I member 2 (Homo sapiens, UniProt O75469); assay: Activation of human PXR expressed in human DPX2 co-expressing luciferase reporter gene incubated for 24 hrs by luciferase assay; assay type: cell-based
T1 sequence (O75469 whole entry): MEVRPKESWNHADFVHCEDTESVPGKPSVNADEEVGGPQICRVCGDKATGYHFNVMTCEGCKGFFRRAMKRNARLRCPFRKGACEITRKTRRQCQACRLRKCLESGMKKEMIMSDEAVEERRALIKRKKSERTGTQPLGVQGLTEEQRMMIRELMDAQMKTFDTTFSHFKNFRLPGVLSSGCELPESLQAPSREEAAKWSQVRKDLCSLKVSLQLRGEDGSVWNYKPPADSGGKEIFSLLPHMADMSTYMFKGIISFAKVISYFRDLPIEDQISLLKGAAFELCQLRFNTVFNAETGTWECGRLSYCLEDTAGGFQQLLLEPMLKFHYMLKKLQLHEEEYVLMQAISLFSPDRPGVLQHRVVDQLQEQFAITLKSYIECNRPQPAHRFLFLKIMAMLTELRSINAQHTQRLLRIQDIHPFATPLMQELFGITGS

PXR [17] = target: T2, PXR (Homo sapiens, UniProt O75469); assay: Activation of human PXR expressed in human DPX2 co-expressing luciferase reporter gene assessed as maximum efficacy incubated for 24 hrs by luciferase assay relative to control; assay type: cell-based; conditions: DPX2 cells expressing human PXR and luciferase reporter gene
T2 sequence (O75469 whole entry): T1 sequence (O75469 whole entry)

Cytochrome P450 2D6 = Cytochrome P450 2D6 (Homo sapiens, UniProt P10635); assay: Inhibition of CYP2D6 in human liver microsomes incubated for 10 mins in presence of NADPH by LC/MS/MS analysis; assay type: ADME, Microsome
[18] = Volume of distribution at steady state in Sprague-Dawley rat at 0.5 mg/kg,iv and measured after 72 hrs by LC/MS/MS analysis; assay type: ADME, organism-based; conditions: in vivo, read-out: Vdss
[19] = Protein binding in human plasma at 1 uM incubated for 6 hrs by LC-MS/MS based rapid equilibrium dialysis method; assay type: ADME, cell-free; conditions: read-out: PPB
[20] = Half life in Sprague-Dawley rat at 0.5 mg/kg,iv and measured after 72 hrs by LC/MS/MS analysis; assay type: ADME, organism-based; conditions: in vivo
[21] = AUC (0 to infinity) in Sprague-Dawley rat at 0.5 mg/kg,iv and measured after 72 hrs by LC/MS/MS analysis; assay type: ADME, organism-based; design: time 72 hrs, dose 0.5 mg/kg, route iv; conditions: in vivo
[22] = Oral bioavailability in Sprague-Dawley rat at 1.5 mg/kg and measured after 72 hrs by LC/MS/MS analysis; assay type: ADME, organism-based; conditions: in vivo
[23] = Unbound AUC (0 to infinity) in Sprague-Dawley rat at 0.5 mg/kg,iv and measured after 72 hrs by LC/MS/MS analysis; assay type: ADME, organism-based; conditions: in vivo
[24] = Half life in Sprague-Dawley rat at 1.5 mg/kg,po and measured after 72 hrs by LC/MS/MS analysis; assay type: ADME, organism-based; conditions: in vivo
[25] = Microsomal stability in human liver microsomes assessed as parent compound remaining at 1 uM and measured after 30 mins in presence of NADPH by LC/MS/MS analysis; assay type: ADME, Microsome; conditions: 0.5 h
[26] = Cmax in Sprague-Dawley rat at 1.5 mg/kg,po and measured after 72 hrs by LC/MS/MS analysis; assay type: ADME, organism-based; design: dose 1.5 mg/kg, time 72 hrs, route po; conditions: in vivo
Cytochrome P450 2C9 = Cytochrome P450 2C9 (Homo sapiens, UniProt P11712); assay: Inhibition of CYP2C9 in human liver microsomes incubated for 10 mins in presence of NADPH by LC/MS/MS analysis; assay type: ADME, Microsome
Cytochrome P450 3A4 = Cytochrome P450 3A4 (Homo sapiens, UniProt P08684); assay: Inhibition of CYP3A4 in human liver microsomes incubated for 10 mins in presence of NADPH by LC/MS/MS analysis; assay type: ADME, Microsome
PXR [27] = target: T2, PXR; assay: Activation of human PXR expressed in human DPX2 co-expressing luciferase reporter gene assessed as fold increase incubated for 24 hrs by luciferase assay relative to control; assay type: cell-based; conditions: DPX2 cells expressing human PXR and luciferase reporter gene, read-out: FC
[28] = Microsomal stability in rat liver microsomes assessed as parent compound remaining at 1 uM and measured after 30 mins in presence of NADPH by LC/MS/MS analysis; assay type: ADME, Microsome; conditions: 0.5 h
[29] = Unbound clearance in Sprague-Dawley rat at 0.5 mg/kg,iv and measured after 72 hrs by LC/MS/MS analysis; assay type: ADME, organism-based; conditions: in vivo
[30] = Unbound AUC (0 to infinity) in Sprague-Dawley rat at 1.5 mg/kg,po and measured after 72 hrs by LC/MS/MS analysis; assay type: ADME, organism-based; conditions: in vivo
[31] = AUC (0 to infinity) in Sprague-Dawley rat at 1.5 mg/kg,po and measured after 72 hrs by LC/MS/MS analysis; assay type: ADME, organism-based; design: dose 1.5 mg/kg, time 72 hrs, route po; conditions: in vivo

Sequence of Cytochrome P450 2D6 (P10635 whole entry): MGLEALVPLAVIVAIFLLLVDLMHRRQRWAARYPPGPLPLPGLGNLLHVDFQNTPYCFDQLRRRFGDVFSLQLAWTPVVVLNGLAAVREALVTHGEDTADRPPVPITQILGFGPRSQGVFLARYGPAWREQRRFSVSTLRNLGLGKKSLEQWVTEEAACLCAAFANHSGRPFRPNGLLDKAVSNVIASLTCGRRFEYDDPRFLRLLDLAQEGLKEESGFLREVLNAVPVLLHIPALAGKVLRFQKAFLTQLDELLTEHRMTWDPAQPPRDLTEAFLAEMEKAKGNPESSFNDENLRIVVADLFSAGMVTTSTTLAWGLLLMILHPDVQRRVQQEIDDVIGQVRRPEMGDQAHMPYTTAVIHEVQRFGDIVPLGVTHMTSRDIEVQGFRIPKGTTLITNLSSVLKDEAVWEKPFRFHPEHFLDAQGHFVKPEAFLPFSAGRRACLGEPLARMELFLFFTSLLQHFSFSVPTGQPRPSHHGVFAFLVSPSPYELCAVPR
Sequence of Cytochrome P450 2C9 (P11712 whole entry): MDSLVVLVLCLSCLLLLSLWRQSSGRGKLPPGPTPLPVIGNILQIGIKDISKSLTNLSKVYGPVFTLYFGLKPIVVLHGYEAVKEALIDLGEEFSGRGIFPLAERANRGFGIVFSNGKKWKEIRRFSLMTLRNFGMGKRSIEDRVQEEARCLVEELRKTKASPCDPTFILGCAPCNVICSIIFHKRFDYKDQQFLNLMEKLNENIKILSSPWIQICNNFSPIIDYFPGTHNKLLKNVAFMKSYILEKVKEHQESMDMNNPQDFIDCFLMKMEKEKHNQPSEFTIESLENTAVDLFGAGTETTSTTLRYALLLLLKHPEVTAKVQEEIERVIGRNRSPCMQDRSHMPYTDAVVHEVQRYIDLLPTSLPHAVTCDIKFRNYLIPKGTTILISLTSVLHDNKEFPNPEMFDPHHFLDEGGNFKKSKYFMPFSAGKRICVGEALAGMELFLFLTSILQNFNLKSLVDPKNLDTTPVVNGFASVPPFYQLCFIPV
Sequence of Cytochrome P450 3A4 (P08684 whole entry): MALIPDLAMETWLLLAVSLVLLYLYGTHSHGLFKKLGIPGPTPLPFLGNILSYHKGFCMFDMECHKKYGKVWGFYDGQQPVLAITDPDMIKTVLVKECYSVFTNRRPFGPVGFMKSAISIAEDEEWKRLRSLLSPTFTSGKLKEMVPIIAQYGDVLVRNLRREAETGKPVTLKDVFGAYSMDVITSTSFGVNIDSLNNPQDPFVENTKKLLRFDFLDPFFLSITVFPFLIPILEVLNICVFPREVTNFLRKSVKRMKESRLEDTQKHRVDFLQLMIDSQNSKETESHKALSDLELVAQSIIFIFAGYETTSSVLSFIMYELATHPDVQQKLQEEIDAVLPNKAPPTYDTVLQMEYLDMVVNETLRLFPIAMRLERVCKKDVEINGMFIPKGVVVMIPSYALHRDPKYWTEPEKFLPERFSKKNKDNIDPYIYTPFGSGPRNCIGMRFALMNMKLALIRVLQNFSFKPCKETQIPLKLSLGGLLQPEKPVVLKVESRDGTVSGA

SMILES | CC50 [1] [nM] | IC50 (Hepatitis C virus [2]) [nM] | IC90 (Hepatitis C virus [2]) [nM] | IC50 (Hepatitis C virus [3]) [nM] | fraction unbound at 6 h, 1 µM [4] | fAUC [5] [ng·h/mL] | fAUC [6] [ng·h/mL] | bioavailability [7] [%] | Cmax [8] [ng/mL] | CL free [9] [mL/min/kg] | Vd [10] [L/kg] | AUC(0-inf) [12] [ng·h/mL] | half-life [13] [h] | EC50 [16] [nM] | Emax at 24 h (PXR [17]) [%] | further results
C[C@H](C(=O)N(C)C)N(c1cc(C#CC(C)(C)C)sc1C(=O)O)C(=O)[C@H]1CC[C@H](C)CC1 | > 20000 | 110 | 610 | 1320 |  |  |  |  |  |  |  |  |  |  |  | 
C[C@@H](C(=O)N(C)C)N(c1cc(C#CC(C)(C)C)sc1C(=O)O)C(=O)[C@H]1CC[C@H](C)CC1 | > 20000 | 5 | 24 | 49 |  |  |  |  |  |  |  |  |  |  |  | 
CC(C)(C)C#Cc1cc(N(CC(=O)N2CCOCC2)C(=O)[C@H]2CC[C@H](C)CC2)c(C(=O)O)s1 | > 20000 | 23 | 100 | 340 |  |  |  |  |  |  |  |  |  |  |  | 
CN1CC[C@@H](N(c2cc(C#CC(C)(C)C)sc2C(=O)O)C(=O)[C@H]2CC[C@H](C)CC2)C1=O | > 20000 | 16 | 96 | 140 | 0.002 | 3.48 | 6.64 | 64 | 1310 | 11300 | 1.93 | 3320 | 2.73 |  |  | AUC ([11]; 72 h): 1740 ng·h/mL
CN1CC[C@H](N(c2cc(C#CC(C)(C)C)sc2C(=O)O)C(=O)[C@H]2CC[C@H](C)CC2)C1=O | > 20000 | 4 | 13 | 40 | 0.019 | 4.35 | 3.34 | 26 | 119 | 3880 | 6.04 | 176 | 3.07 |  |  | half-life [14]: 4.66 h; AUC(0-inf) [11]: 229 ng·h/mL; clearance [15]: 73.7 mL/min/kg
CN1CCCC[C@@H](N(c2cc(C#CC(C)(C)C)sc2C(=O)O)C(=O)[C@H]2CC[C@H](C)CC2)C1=O | > 20000 | 29 | 63 | 156 | 0.002 | 2.26 | 7.06 | 122 | 589 | 7950 | 1.05 | 3530 | 2.79 | > 30000 | 16 | half-life [14]: 4.31 h; AUC(0-inf) [11]: 1130 ng·h/mL; clearance [15]: 15.9 mL/min/kg
CN1CCC[C@H](N(c2cc(C#CC(C)(C)C)sc2C(=O)O)C(=O)[C@H]2CC[C@H](C)CC2)C1=O | > 20000 | 3 | 8 | 24 | 0.011 |  |  |  |  |  |  |  |  | 17300 | 63 | IC50 (Cytochrome P450 2D6): > 30000 nM; Vd [18]: 1.17 L/kg; fraction unbound at 6 h, 1 µM [19]: 0.01; half-life [20]: 6.68 h; AUC [21]: 8770 ng·h/mL; bioavailability [22]: 24%; fAUC [23]: 96.5 ng·h/mL; half-life [24]: 4.8 h; Stability [25]: Stable; Cmax [26]: 751 ng/mL; IC50 (Cytochrome P450 2C9): > 30000 nM; IC50 (Cytochrome P450 3A4): > 30000 nM; fold induction at 24 h (PXR [27]): 15.1; Stability [28]: Stable; CL free [29]: 755 mL/min/kg; fAUC [30]: 70.3 ng·h/mL; AUC(0-inf) [31]: 6390 ng·h/mL
CN1CCC[C@@H](N(c2cc(C#CC(C)(C)C)sc2C(=O)O)C(=O)[C@H]2CC[C@H](C)CC2)C1=O | > 20000 | 10 | 44 | 105 | 0.0004 |  |  |  |  |  |  |  |  | 20400 | 28 | Vd [18]: 0.221 L/kg; half-life [20]: 5.57 h; AUC [21]: 25400 ng·h/mL; bioavailability [22]: 32%; fAUC [23]: 10.2 ng·h/mL; half-life [24]: 6.13 h; Cmax [26]: 2540 ng/mL; fold induction at 24 h (PXR [27]): 7.3; CL free [29]: 2980 mL/min/kg; fAUC [30]: 9.76 ng·h/mL; AUC(0-inf) [31]: 24400 ng·h/mL
CC(C)(C)C#Cc1cc(N(C(=O)[C@H]2CC[C@H](C)CC2)[C@H]2CC[C@H](O)CC2)c(C(=O)O)s1 [LOMIBUVIR] | > 20000 | 25 | 97 | 203 |  |  |  |  |  |  |  |  |  |  |  | 
